Data reported in patent publication US20230085307A1, “PYRIDAZINONE COMPOUND AND HERBICIDE” (NISSAN CHEMICAL CORPORATION, priority 2019, published 2023).

Columns and labels:
persian speedwell [1] = assay: Test Example 5: herbicidal effect by foliage application, plastic box (Table 20, symbol R); type: in vivo, Persian speedwell (Veronica persica); conditions: 320 g/ha; for herbicidal effect on R: persian speedwell (evaluation grade 0-5): foliage application after 14-day growth, evaluated three weeks after application
Outline: (§1)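 Plants were sown into sterilized diluvial soil under about 1.5 cm cover and kept in a greenhouse at 25° C. to 30° C. Fourteen days on, foliage received an even spray of the diluted emulsion. Herbicidal or crop effect was judged three weeks afterwards.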

Italian ryegrass [2] = assay: Test Example 4: herbicidal effect by soil treatment (Table 19, symbol K); type: in vivo, Italian ryegrass (Lolium multiflorum); conditions: amount of applied herbicide 320 g/ha
Outline: (§2)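 In this soil treatment, the formulated compound reached the seeds only through the soil: seeds were buried about 1.5 cm deep in sterilized diluvial soil, then the diluted emulsion was sprayed over the surface. After three weeks at 25° C. to 30° C. in a greenhouse, effects were graded on criteria from an earlier test.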

late watergrass [3] = assay: Test Example 1: herbicidal activity, application before weed generation under submerged conditions (Table 16, symbol A); type: in vivo, late watergrass (Echinochloa oryzicola); conditions: amount of applied herbicide 320 g/ha
Outline: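 Alluvial soil was flooded to 4 cm depth, weed seeds were sown mixed and 2.5-leaf rice seedlings were transplanted. On sowing day, the compound's emulsion, diluted in water to a set dose, was applied to the water surface. Plants grew at 25–30 °C and were scored 0–5 after three weeks.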

persian speedwell [4] = assay: Test Example 4: herbicidal effect by soil treatment (Table 19, symbol R); type: in vivo, Persian speedwell (Veronica persica); conditions: amount of applied herbicide 320 g/ha
Outline: as §2

barnyard grass = assay: Test Example 3: herbicidal effect by foliage application, Wagner pot (Table 18, symbol H); type: in vivo, barnyard grass (Echinochloa crus-galli); conditions: for herbicidal effect on barnyard grass (H): 320 g/ha
Outline: (§3)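 Plants were sown in alluvial soil held under 0.1–0.5 cm standing water and grown 14 days in a greenhouse at 25–30 °C. An emulsifiable formulation, water-diluted to the set dose, was then sprayed onto the foliage, and effects were scored three weeks later using previously defined criteria.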

lambsquarters = assay: Test Example 5: herbicidal effect by foliage application, plastic box (Table 20, symbol O); type: in vivo, lambsquarters (Chenopodium album); conditions: 320 g/ha; for herbicidal effect on O: lambsquarters (evaluation grade 0-5): foliage application after 14-day growth, evaluated three weeks after application
Outline: as §1

rice flat sedge = assay: Test Example 3: herbicidal effect by foliage application, Wagner pot (Table 18, symbol E); type: in vivo, rice flat sedge (Cyperus iria); conditions: for herbicidal effect on rice flat sedge (E): 320 g/ha
Outline: as §3

green foxtail [5] = assay: Test Example 5: herbicidal effect by foliage application, plastic box (Table 20, symbol G); type: in vivo, green foxtail (Setaria viridis); conditions: 320 g/ha; for herbicidal effect on G: green foxtail (evaluation grade 0-5): foliage application after 14-day growth, evaluated three weeks after application
Outline: as §1

oval-leafed pondweed = assay: Test Example 2: herbicidal activity, application during weed generation under submerged conditions (Table 17, symbol C); type: in vivo, oval-leafed pondweed (Monochoria vaginalis); conditions: AAH 320 g/ha; application during weed generation, submerged conditions
Outline: (§4)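 3-wk visual-criteria score after one water-surface dose. Emulsion formulation, water-diluted to set rate; applied at 1–2 leaf stage; alluvial soil, 4 cm standing water; seeds co-sown; greenhouse 25–30° C.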

Japanese bulrush = assay: Test Example 2: herbicidal activity, application during weed generation under submerged conditions (Table 17, symbol B); type: in vivo, Japanese bulrush (Schoenoplectus juncoides); conditions: AAH 320 g/ha; application during weed generation, submerged conditions
Outline: as §4

southern crabgrass = assay: Test Example 5: herbicidal effect by foliage application, plastic box (Table 20, symbol F); type: in vivo, southern crabgrass (Digitaria ciliaris); conditions: 320 g/ha; for herbicidal effect on F: southern crabgrass (evaluation grade 0-5): foliage application after 14-day growth, evaluated three weeks after application
Outline: as §1

late watergrass [6] = assay: Test Example 2: herbicidal activity, application during weed generation under submerged conditions (Table 17, symbol A); type: in vivo, late watergrass (Echinochloa oryzicola); conditions: AAH 320 g/ha; application during weed generation, submerged conditions
Outline: as §4

chickweed = assay: Test Example 4: herbicidal effect by soil treatment (Table 19, symbol P); type: in vivo, common chickweed (Stellaria media); conditions: amount of applied herbicide 320 g/ha
Outline: as §2

Italian ryegrass [7] = assay: Test Example 5: herbicidal effect by foliage application, plastic box (Table 20, symbol K); type: in vivo, Italian ryegrass (Lolium multiflorum); conditions: 320 g/ha; for herbicidal effect on K: Italian ryegrass (evaluation grade 0-5): foliage application after 14-day growth, evaluated three weeks after application
Outline: as §1

green foxtail [8] = assay: Test Example 4: herbicidal effect by soil treatment (Table 19, symbol G); type: in vivo, green foxtail (Setaria viridis); conditions: amount of applied herbicide 320 g/ha
Outline: as §2

windgrass [9] = assay: Test Example 4: herbicidal effect by soil treatment (Table 19, symbol L); type: in vivo, windgrass (Apera spica-venti); conditions: amount of applied herbicide 320 g/ha
Outline: as §2

windgrass [10] = assay: Test Example 5: herbicidal effect by foliage application, plastic box (Table 20, symbol L); type: in vivo, windgrass (Apera spica-venti); conditions: foliage application, 320 g/ha, three weeks after application
Outline: as §1

[11] = foliage application, three weeks after application
[12] = amount of applied herbicide 320 g/ha

`C=C(C)C(=O)Oc1c(C)nn(C)c(=O)c1-c1c(-c2ccccc2OC)sc2cc(OC)ccc12` [3-155] was tested, and the “herbicidal effect on R: persian speedwell (evaluation grade 0-5)” value (persian speedwell [1]) was 5 (Herbicidal rate of 90% or more (almost completely withered)), the “Herbicidal effect by soil treatment, K: Italian ryegrass” value (Italian ryegrass [2]) was 3 (Herbicidal rate of 40% or more and less than 70%) and the “Herbicidal effect, A: late watergrass” value (late watergrass [3]) was 5 (Herbicidal rate of 90% or more (almost completely withered)). The “Herbicidal effect by soil treatment, R: persian speedwell” value (persian speedwell [4]) was 0 (Herbicidal rate of 5% or less (almost no effect)), the “herbicidal effect on barnyard grass (H)” value (barnyard grass) was 5 (Herbicidal rate of 90% or more (almost completely withered)) and the “herbicidal effect on O: lambsquarters (evaluation grade 0-5)” value (lambsquarters) was 4 (Herbicidal rate of 70% or more and less than 90%). The “herbicidal effect on rice flat sedge (E)” value (rice flat sedge) was 4 (Herbicidal rate of 70% or more and less than 90%), the “herbicidal effect on G: green foxtail (evaluation grade 0-5)” value (green foxtail [5]) was 5 (Herbicidal rate of 90% or more (almost completely withered)) and the “herbicidal effect rating, C: oval-leafed pondweed” value (“herbicidal effect rating, C” for short) (oval-leafed pondweed) was 5 (Herbicidal rate of 90% or more (almost completely withered)). For the same compound, the “herbicidal effect rating, B: Japanese bulrush” value (“herbicidal effect rating, B” below) (Japanese bulrush) was 5 (Herbicidal rate of 90% or more (almost completely withered)), the “herbicidal effect on F: southern crabgrass (evaluation grade 0-5)” value (southern crabgrass) was 5 (Herbicidal rate of 90% or more (almost completely withered)) and the “herbicidal effect rating, A: late watergrass” value (late watergrass [6]) was 5 (Herbicidal rate of 90% or more (almost completely withered)). For the same compound, the “Herbicidal effect by soil treatment, P: chickweed” value (chickweed) was 1 (Herbicidal rate of 5% or more and less than 20%), the “herbicidal effect on K: Italian ryegrass (evaluation grade 0-5)” value (Italian ryegrass [7]) was 4 (Herbicidal rate of 70% or more and less than 90%) and the “Herbicidal effect by soil treatment, G: green foxtail” value (green foxtail [8]) was 0 (Herbicidal rate of 5% or less (almost no effect)). For the same compound, the “Herbicidal effect by soil treatment, L: windgrass” value (windgrass [9]) was 4 (Herbicidal rate of 70% or more and less than 90%).

With `CCCC(=O)Oc1c(C)nn(C)c(=O)c1-c1c(-c2ccc(OC)cc2)sc2c(F)cccc12` [4-006] the “herbicidal effect on R: persian speedwell (evaluation grade 0-5)” value (persian speedwell [1]) was 3 (Herbicidal rate of 40% or more and less than 70%), the “Herbicidal effect by soil treatment, K: Italian ryegrass” value (Italian ryegrass [2]) was 0 (Herbicidal rate of 5% or less (almost no effect)) and the “Herbicidal effect, A: late watergrass” value (late watergrass [3]) was 3 (Herbicidal rate of 40% or more and less than 70%). The “Herbicidal effect by soil treatment, R: persian speedwell” value (persian speedwell [4]) was 0 (Herbicidal rate of 5% or less (almost no effect)), the “herbicidal effect on barnyard grass (H)” value (barnyard grass) was 5 (Herbicidal rate of 90% or more (almost completely withered)) and the “herbicidal effect on O: lambsquarters (evaluation grade 0-5)” value (lambsquarters) was 3 (Herbicidal rate of 40% or more and less than 70%). The “herbicidal effect on rice flat sedge (E)” value (rice flat sedge) was 5 (Herbicidal rate of 90% or more (almost completely withered)), the “herbicidal effect on G: green foxtail (evaluation grade 0-5)” value (green foxtail [5]) was 4 (Herbicidal rate of 70% or more and less than 90%) and the “herbicidal effect rating, C” value (oval-leafed pondweed) was 2 (Herbicidal rate of 20% or more and less than 40%). The “herbicidal effect rating, B” value (Japanese bulrush) was 3 (Herbicidal rate of 40% or more and less than 70%), the “herbicidal effect on F: southern crabgrass (evaluation grade 0-5)” value (southern crabgrass) was 1 (Herbicidal rate of 5% or more and less than 20%) and the “herbicidal effect rating, A: late watergrass” value (late watergrass [6]) was 3 (Herbicidal rate of 40% or more and less than 70%). The “Herbicidal effect by soil treatment, P: chickweed” value (chickweed) was 0 (Herbicidal rate of 5% or less (almost no effect)), the “herbicidal effect on K: Italian ryegrass (evaluation grade 0-5)” value (Italian ryegrass [7]) was 4 (Herbicidal rate of 70% or more and less than 90%) and the “Herbicidal effect by soil treatment, G: green foxtail” value (green foxtail [8]) was 4 (Herbicidal rate of 70% or more and less than 90%). For the same compound, the “Herbicidal effect by soil treatment, L: windgrass” value (windgrass [9]) was 0 (Herbicidal rate of 5% or less (almost no effect)).

`CSc1ccc(-c2oc3ccc(F)cc3c2-c2c(O)c(C)nn(C)c2=O)cc1` [9-037] was tested, and the “herbicidal effect on persian speedwell (R)” value (persian speedwell [1]; [11]) was 5 (Herbicidal rate of 90% or more (almost completely withered)), the “herbicidal effect on windgrass (L)” value (windgrass [10]) was 5 (Herbicidal rate of 90% or more (almost completely withered)) and the “K: Italian ryegrass, herbicidal effect grade” value (Italian ryegrass [2]) was 5 (Herbicidal rate of 90% or more (almost completely withered)). The “Herbicidal effect, A: late watergrass” value (late watergrass [3]) was 3 (Herbicidal rate of 40% or more and less than 70%), the “R: persian speedwell, herbicidal effect grade” value (persian speedwell [4]) was 4 (Herbicidal rate of 70% or more and less than 90%) and the “Herbicidal effect on H (barnyard grass), foliage application” value (barnyard grass; [12]) was 5 (Herbicidal rate of 90% or more (almost completely withered)). The “herbicidal effect on lambsquarters (O)” value (lambsquarters; [11]) was 5 (Herbicidal rate of 90% or more (almost completely withered)), the “Herbicidal effect on E (rice flat sedge), foliage application” value (rice flat sedge; [12]) was 5 (Herbicidal rate of 90% or more (almost completely withered)) and the “herbicidal effect on green foxtail (G)” value (green foxtail [5]; [11]) was 5 (Herbicidal rate of 90% or more (almost completely withered)). For the same compound, the “herbicidal effect rating, C” value (oval-leafed pondweed) was 2 (Herbicidal rate of 20% or more and less than 40%), the “herbicidal effect rating, B” value (Japanese bulrush) was 2 (Herbicidal rate of 20% or more and less than 40%) and the “herbicidal effect on southern crabgrass (F)” value (southern crabgrass; [11]) was 4 (Herbicidal rate of 70% or more and less than 90%). For the same compound, the “herbicidal effect rating, A: late watergrass” value (late watergrass [6]) was 0 (Herbicidal rate of 5% or less (almost no effect)), the “herbicidal effect on Italian ryegrass (K)” value (Italian ryegrass [7]; [11]) was 5 (Herbicidal rate of 90% or more (almost completely withered)) and the “G: green foxtail, herbicidal effect grade” value (green foxtail [8]) was 1 (Herbicidal rate of 5% or more and less than 20%). For the same compound, the “L: windgrass, herbicidal effect grade” value (windgrass [9]) was 0 (Herbicidal rate of 5% or less (almost no effect)).
